The target in this assay is T1, human ClC-2 (hClC-2) Cl^− channel (Homo sapiens, UniProt P51788).
T1 construct: gene CLCN2; recombinant hClC-2 stably expressed in HEK293EBNA cells
T1 sequence (P51788 2-898): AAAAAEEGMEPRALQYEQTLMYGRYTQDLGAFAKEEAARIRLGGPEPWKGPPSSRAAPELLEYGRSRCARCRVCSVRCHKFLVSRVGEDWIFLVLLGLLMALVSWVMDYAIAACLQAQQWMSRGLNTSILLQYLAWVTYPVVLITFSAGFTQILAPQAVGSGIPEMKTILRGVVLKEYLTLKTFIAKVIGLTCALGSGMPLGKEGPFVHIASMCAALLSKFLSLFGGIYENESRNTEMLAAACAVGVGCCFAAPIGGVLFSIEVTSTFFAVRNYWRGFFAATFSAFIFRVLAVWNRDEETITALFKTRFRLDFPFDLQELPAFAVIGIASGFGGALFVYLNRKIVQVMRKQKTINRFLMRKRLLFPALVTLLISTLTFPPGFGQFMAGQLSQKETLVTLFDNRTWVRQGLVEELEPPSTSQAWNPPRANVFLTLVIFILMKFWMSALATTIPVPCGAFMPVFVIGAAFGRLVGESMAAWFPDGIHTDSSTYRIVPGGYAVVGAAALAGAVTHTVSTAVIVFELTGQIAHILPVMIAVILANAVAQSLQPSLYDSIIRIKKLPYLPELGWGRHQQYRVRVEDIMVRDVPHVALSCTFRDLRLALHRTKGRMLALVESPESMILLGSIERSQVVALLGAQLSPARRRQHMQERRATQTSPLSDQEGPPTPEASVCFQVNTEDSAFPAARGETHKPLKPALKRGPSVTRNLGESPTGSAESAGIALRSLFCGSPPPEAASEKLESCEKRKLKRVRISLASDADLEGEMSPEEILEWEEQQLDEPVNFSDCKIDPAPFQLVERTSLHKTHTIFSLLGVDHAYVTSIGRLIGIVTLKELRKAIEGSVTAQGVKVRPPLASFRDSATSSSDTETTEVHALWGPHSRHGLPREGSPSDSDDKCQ
The assay is described as follows: whole cell patch clamp, activation of Cl- currents at -140 mV. The format is cell-based. In general terms: Patch clamp records ionic current or voltage across a cell membrane.

Usually EC50 stands for the concentration that produces a half-maximal response.

`CCCCC(F)(F)[C@@]1(O)CC[C@H]2[C@@H](CC(=O)[C@@H]2CCCCCCC(=O)O)O1` [Lubiprostone] had a concentration for a half-maximal effect (EC50) of 28.2 nM.
